For orientation: IC50 means the concentration that gives 50% inhibition.

Experimental findings from PMC11312998, “Molecular Pro-Apoptotic Activities of Flavanone Derivatives in Cyclodextrin Complexes: New Implications for Anticancer Therapy” (International Journal of Molecular Sciences, 2024) are described below.

Read-outs that look alike come from different tables or passages of the source.

The test system of data set [1] is Ishikawa. Put plainly: MTT cytotoxicity assay. It is filed as cell-based. The conditions noted are these: Homo sapiens. On the procedure: (§1) Cell viability was determined using the metabolic microplate spectrophotometric assay with Methylthiazolyl diphenyltetrazolium bromide (MTT), i.e., 3-(4,5-Dimethyl-2-thiazolyl)-2,5-diphenyl-2H-tetrazolium bromide (Sigma-Aldrich; St. Louis, MO, USA). The anticancer activity of the investigated compounds was evaluated in vitro on the basis of their ability to inhibit the proliferation of various cancer cells. The appropriate number of cells for a given cell line (6–8 × 10^3 cells/mL) were seeded into sterile, colorless 96-well microplates. After 24 h of culture, specific wells of the microplate were treated with test compounds (10–200 µmol/L concentration) and incubated in a CO2 incubator for 24 h. The medium was then removed, the cell monolayer was washed twice with sterile PBS solution and fresh culture medium was added to the wells of the microplate.
(§2) After 48 h of cell culture, the MTT test was conducted. In each well of the microplate, 50 µL of tetrazolium salt solution (final concentration 0.05 mg/mL) was added. The microplate was then placed in a CO2 incubator for 3–4 h (depending on the cell line). Following incubation, 100 µL of DMSO (dimethyl sulfoxide, Sigma-Aldrich, St. Louis, MO, USA) was added to the microplate wells to dissolve the purple formazan crystals formed in the environment of living cells. The absorbance of the formazan solution was read at a wavelength of λ = 580 nm and a reference wavelength of λ = 720 nm after gentle mixing (Biotek Power Wave HT, Biotek Instruments, Winooski, VT, USA).
The percentage of live cells was calculated by comparing the absorbance value of the tested samples with that of the control (cells not treated with compounds). Control absorbance was arbitrarily considered to be 100%. […]

A short description of data set [2]: MTT cytotoxicity assay, model of normal cells. It is filed as cell-based. The conditions noted are these: human, HMEC-1 cells (model of normal cells), 24 h incubation, mean ± SEM, read-out: Cytotoxic effect, IC50. Here is the method: as §1, §2
The percentage of live cells was calculated by comparing the absorbance value of the tested samples with that of the control (cells not treated with compounds). Control absorbance was arbitrarily considered to be 100%.
Background: Formazan colour is commonly taken as a measure of viable cells.

The test system of data set [3] is Ishikawa. The data set is described as follows: Mitochondrial potential (ΔΨm), JC-1 method. It is filed as cell-based, human. The conditions noted are these: IC50 concentration, 24 h. The text has this: (§3) 5,5,6,6-Tetrachloro-1,1,3,3-tetraethylbenzimidazolylcarbocyanine iodide (JC-1) is a cationic carbocyanine dye commonly used as a fluorescent probe to detect mitochondrial membrane depolarization. In living cells with an intact mitochondrial membrane, the lipophilic JC-1 penetrates the negatively charged mitochondrial matrix as a monomer. It then forms fluorescent aggregates with red-orange fluorescence (λex = 514 nm, λem = 590 nm). During depolarization of the mitochondrial membrane or in apoptotic cells, the concentration of JC-1 decreases, and the aggregates disintegrate into monomers emitting green fluorescence (λex = 514 nm, λem = 529 nm). The fluorescence ratio of aggregates (λem = 590 nm) and monomers (λem = 529 nm)—590 nm/529 nm—reflects the level of damage to the mitochondrial membrane.
(§4) The cells were seeded in black 96-well fluorometric microplates at a density of 10 × 10^3 cells per well. […] After incubation with the compounds, the medium was removed, the cell monolayer in the wells was washed twice with HBSS (140 mM NaCl, 5 mM KCl, 0.8 mM MgCl2, 1.8 mM CaCl2, 1 mM Na2HPO4, 10 mM HEPES and 1% glucose) and 50 μL of JC-1 solution in HBSS was added to each well (final probe concentration 5 μmol/L). Cells were incubated with the probe for 30 min in the dark in an incubator (37 °C). After incubation, the probe was removed and replaced with fresh HBSS buffer. Fluorescence measurements (Perkin-Elmer LS-5B spectrofluorometer, MA, USA) of JC-1 monomers and aggregates were made at the following excitation and emission wavelengths: λex = 514 nm, λem = 529 nm (monomers), λex = 514 nm, λem = 590 nm (aggregates). The results of the tested samples are presented as the percentage fluorescence ratio of JC-1 aggregates and JC-1 monomers relative to the fluorescence ratio of JC-1 aggregates and JC-1 monomers of the control, which was assumed to be 100%.
(§5) A positive control was formed of cells pre-incubated with 5 µmol/L carbonyl cyanide m-chlorophenylhydrazone (CCCP), a chemical inhibitor of oxidative phosphorylation that acts by uncoupling the protons flowing along the electrochemical gradient from phosphorylation.

The test system of a further data set is Hec-1-A. The data set is described as follows: Mitochondrial potential (ΔΨm), JC-1 method. It is filed as cell-based, human. The conditions noted are these: IC50 concentration, 24 h.
Description: as §3, §4, §5

In a further data set the test system is MCF-7. The data set is described as follows: Mitochondrial potential (ΔΨm), JC-1 method. It is filed as cell-based, human. The conditions noted are these: IC50 concentration, 24 h.
Description: as §3, §4, §5

Another data set deals with MDA-MB-231. Put plainly: Superoxide anion generation, DHE probe. It is filed as cell-based, human. The conditions noted are these: IC50 concentration, 24 h. On the procedure:
The level of superoxide anion (O2^•−) was determined by microplate spectrofluorimetry with dihydroethidium (hydroethidine, DHE) (Life Technologies, Carlsbad, CA, USA), which is the most commonly used fluorogenic probe for monitoring the intracellular production of superoxide anion O2^•− [41]. […] Thanks to this shift, DHE can be used as a sensitive probe for cellular ROS. The reaction between superoxide and DHE generates a highly specific red fluorescent product, 2-hydroxyethidium (2-OH-E^+).
The cells were seeded in black 96-well fluorometric microplates at a density of 10 × 10^3 cells per well. […] After incubation, the medium was removed, the cell monolayer in the wells was washed twice with HBSS (140 mM NaCl, 5 mM KCl, 0.8 mM MgCl2, 1.8 mM CaCl2, 1 mM Na2HPO4, 10 mM HEPES and 1% glucose) and 50 μL of DHE solution in HBSS was added to each well (final probe concentration 5 μmol/L). Cells were incubated with the probe for 30 min in the dark in an incubator (37 °C), and then fluorescence was measured. The measurement was performed at the following excitation and fluorescence emission wavelengths: λex = 498 nm/λem = 582 nm. Fluorescence measurements were made on a Perkin-Elmer LS-5B spectrofluorometer (MA, USA). Fluorescence intensity values for control cells were arbitrarily set as 100%. The results are presented as percentages of control cell values, calculated relative to the fluorescence intensity of the controls (100%): sample fluorescence was calculated as Δf in relation to the controls.

Data set [4] relates to breast cancer cells (MCF-7, MDA-MB-231 and HCC38) and endometrial cancer cells (Ishikawa, Hec-1-A). Put plainly: MTT cytotoxicity assay, summary over the cell lines. It is filed as cell-based, human. Particulars: Homo sapiens; range over the five cancer lines; read-out: IC50, range depending on the cancer line. Here is the method: as §1, §2
The percentage of live cells was calculated by comparing the absorbance value of the tested samples with that of the control (cells not treated with compounds). Control absorbance was arbitrarily considered to be 100%. […] Moreover, cisplatin (Sigma-Aldrich, St. Louis, MO, USA) was used as a reference compound, and identical incubation conditions were used as described above.

Where [5] appears, read: Ishikawa vs HMEC-1, read-out: IC50 in Ishikawa lower than that for HMEC-1, difference.
[6] abbreviates: Ishikawa, 24 h incubation, mean ± SEM, read-out: Cytotoxic effect, IC50.

Regarding `COc1cccc(/C=C2/C(=O)c3ccccc3OC2c2ccccc2)c1` (stereo not drawn) [Compound 3], the concentration for half-maximal inhibition (IC50) with Ishikawa [1] (setting [5]) is roughly 10 µM; in the data set with Ishikawa [1] (setting [6]) it was 15.2 ± 1.6 µM; in data set [4] it was 15 to 27 µM. The half-inhibitory concentration (IC50) at 24 h in data set [2] amounted to 24.1 ± 1.3 µM. Also, the “decrease in ΔΨm” value with Ishikawa [3] is “about 15%”. In the data set on Hec-1-A, the “changes in ΔΨm (in words)” value is “no changes in ΔΨm were observed”. In addition, the “hyperpolarization of ΔΨm” value in the data set with MCF-7 is recorded as “approximately 30%”. In the data set with MDA-MB-231, the “greater superoxide anion level relative to control (DHE probe)” value is given as “approximately 20%”.

Regarding `O=C1/C(=C/c2ccccc2)C(c2ccccc2)Oc2ccccc21` (stereo not drawn) [Compound 5], the values for the IC50 (in the data set with Ishikawa [1] (setting [5]); in the data set with Ishikawa [1] (setting [6]); in data set [4]) were roughly 10 µM, 18.6 ± 4.4 µM and 18 to 36 µM, respectively. Further, in data set [2], the IC50 at 24 h amounted to 19.7 ± 3.7 µM. For the same compound, the “hyperpolarization of mitochondrial membranes relative to controls” value in the data set on Ishikawa [3] is recorded as “approximately 30%”. The “changes in ΔΨm (in words)” value in the data set with Hec-1-A was “no changes in ΔΨm were observed”. The “hyperpolarization of ΔΨm” value in the data set with MCF-7 is on record as roughly 40%. The “greater superoxide anion level relative to control (DHE probe)” value in the data set with MDA-MB-231 is given as roughly 30%.

With `O=C1/C(=C/c2ccccc2)COc2ccccc21` [Compound 1], the half-maximal inhibitory concentration (IC50) is roughly 10 µM with Ishikawa [1] (setting [5]), 10.2 ± 1.8 µM in the data set with Ishikawa [1] (setting [6]) and 10 to 18 µM in data set [4]. In data set [2], the 50% inhibitory concentration (IC50) at 24 h was found to be 21.2 ± 3.1 µM. Further, the “decrease in ΔΨm” value with Ishikawa [3] is reported as “approximately 30%”. Moreover, the “hyperpolarization of ΔΨm compared to control” value with Hec-1-A is “approximately 30%”. Also, the “decrease in ΔΨm (depolarization) compared to the control” value in the data set on MCF-7 is recorded as “approximately 17%”. Besides, the “greater superoxide anion level relative to control (DHE probe)” value in the data set with MDA-MB-231 is “approximately 20%”.
